Measurements published in publication PMC11784026, “Phase 1 study of the safety, tolerability, and pharmacokinetics of a synthetic macrocyclic peptide antibiotic (BRII-693) in healthy adult participants” (Antimicrobial Agents and Chemotherapy, 2024).
Where “and” joins values, the source holds several entries; their conditions need not be identical. Equal values may be shown once. Read-outs that look alike come from different tables or passages of the source. Where a SMILES comes first, the peptide text is derived from it. Bridges are numbered along the chain shown (N, C = ends). [ ]: non-standard residue; d: D form. The star is where a group is joined. X1 = O=C(c1ccc(Cl)cc1Cl)*; Dab = NCC[C@H](N)C(=O)O; Abu = CC[C@H](N)C(=O)O; Dap = NC[C@H](N)C(=O)O

How the values were obtained:
[1] = Plasma pharmacokinetics after multiple ascending doses (MAD), phase 1; assay type: in vivo, human (healthy adult participants); settings: human, plasma, iv; for Vd: read-out: VZ; for Tmax: read-out: Tmax
Experimental: Participants were discharged on day 11.
Plasma and urine PK parameters were summarized for each cohort using descriptive statistics. Analyses using linear models were performed to assess dose proportionality (both single-dose cohorts 1–7 and multiple-dose cohorts 8–10). Dose-linearity of Cmax and AUC across the dose range was assessed by fitting the power model with ln-transformed parameter as response variables and ln-transformed dose (continuous variable) as a fixed effect. For each PK parameter and study phase (SAD or MAD) separately, a pooled estimate (across all dose cohorts) of slope, corresponding 95% confidence interval (CI), and between-subject coefficient of variation (CV) were calculated. Dose proportionality was to be concluded if the 95% CI for the slope spans 1. […] Least square means (LSMs) and difference in LSMs with 90% CI were calculated; these values were then back exponentiated to give the geometric LSM, geometric mean ratio, and 90% CI.

[2] = Renal function: serum creatinine, RIFLE Risk criteria; assay type: in vivo, human (healthy adult participants); settings: for Serum creatinine level: cohort 12, 150 mg q6h × 14 days
Text: Safety assessments included repeated measures of laboratory testing, vital signs, ECGs, physical examinations, and adverse event (AE) monitoring and reporting conducted before, during, and after study drug administration. A >1.5× increase from baseline in creatinine was characterized as meeting the (RIFLE) “Risk” level (or Class R) criteria ([10]). Participants were confined at the clinical research unit for the duration of their study participation. For the SAD cohorts, confinement was from the day before dosing through day 3 (at least 48 hours after dosing). For the MAD cohorts, confinement was from the day before dosing through day 11 for cohorts 8 to 10 and through day 17 for cohorts 11 and 12.

[3] = 150 mg, Last q6h dose (day 9), 7-day MAD 150 mg q6h × 7, n = 5, arithmetic mean ± SD
[4] = 150 mg, Last q6h dose (day 14), 14-day MAD 150 mg q6h × 14, Chinese, n = 6, arithmetic mean ± SD
[5] = 150 mg, Last q6h dose (day 14), 14-day MAD 150 mg q6h × 14, non-Chinese, n = 10, arithmetic mean ± SD
[6] = 200 mg, First q6h dose (day 3), 7-day MAD 200 mg q6h × 7, n = 4, arithmetic mean ± SD
[7] = 200 mg, Last q6h dose (day 9), 7-day MAD 200 mg q6h × 7, n = 5, arithmetic mean ± SD

Q: Which AUC(0-t) ([1]; 150 mg, First q6h dose (day 3), 7-day MAD 150 mg q6h × 7, n = 5, arithmetic mean ± SD, read-out: AUC0-6h) does the source give for CC[C@@H]1NC(=O)[C@@H](CC(C)C)NC(=O)[C@H](CCN)NC(=O)[C@@H](NC(=O)[C@H](CN)NC(=O)[C@@H](NC(=O)[C@H](CCN)NC(=O)c2ccc(Cl)cc2Cl)[C@@H](C)O)CCNC(=O)[C@H]([C@@H](C)O)NC(=O)[C@H](CCN)NC(=O)[C@H](CCN)NC1=O [BRII-693] (X1-[Dab]T[Dap][Dab][Dab][dL][Abu][Dab][Dab]T; lactam 4-C; N-terminus assumed) here?
A: Its AUC(0-t) is 24800 ± 3450 ng·h/mL.

Q: What about the Vd ([1]; 150 mg, First q6h dose (day 3), 7-day MAD 150 mg q6h × 7, n = 5, arithmetic mean ± SD) of the same molecule?
A: The Vd was 17.2 ± 3.33 L.

Q: And the clearance [1, 3]?
A: The clearance was 69.2 mL/min.

Q: What about the half-life [1, 3] of the same molecule?
A: The half-life was 6.76 ± 0.35 h.

Q: And the AUC(0-t) ([1]; 150 mg, Last q6h dose (day 9), 7-day MAD 150 mg q6h × 7, n = 5, arithmetic mean ± SD, read-out: AUC0–6h)?
A: Its AUC(0-t) is 36600 ± 4360 ng·h/mL.

Q: What about the Vd [1, 3] of the same molecule?
A: The Vd was 40.9 ± 9.47 L.

Q: And the Tmax ([1]; 150 mg, Last q6h dose (day 9), 7-day MAD 150 mg q6h × 7, n = 5, median (range))?
A: The Tmax was 1.07 h.

Q: What about the Cmax ([1]; 150 mg, Last q6h dose (day 9), 7-day MAD 150 mg q6h × 7, plasma, n = 5, arithmetic mean ± SD) of the same molecule?
A: Its Cmax is 11700 ± 1540 ng/mL.

Q: What about the clearance [1, 4] of the same molecule?
A: Its clearance is 59.5 mL/min.

Q: What about the half-life [1, 4] of the same molecule?
A: The half-life was 12.4 ± 6.92 h.

Q: And the AUC(0-t) ([1]; 150 mg, Last q6h dose (day 14), 14-day MAD 150 mg q6h × 14, Chinese, n = 6, arithmetic mean ± SD, read-out: AUC0–6h)?
A: The AUC(0-t) was 42500 ± 4960 ng·h/mL.

Q: And the Vd [1, 4]?
A: The Vd was 61.9 ± 30.2 L.

Q: What about the Cmax [1, 4] of the same molecule?
A: Its Cmax is 13300 ± 1500 ng/mL.

Q: And the clearance [1, 5]?
A: The clearance was 64.7 mL/min.

Q: What about the half-life [1, 5] of the same molecule?
A: The half-life was 15.6 ± 11.7 h.

Q: And the AUC(0-t) ([1]; 150 mg, Last q6h dose (day 14), 14-day MAD 150 mg q6h × 14, non-Chinese, n = 10, arithmetic mean ± SD, read-out: AUC0–6h)?
A: Its AUC(0-t) is 39900 ± 7150 ng·h/mL.

Q: What about the Vd [1, 5] of the same molecule?
A: Its Vd is 81.4 ± 55.6 L.

Q: What about the Cmax [1, 5] of the same molecule?
A: Its Cmax is 12700 ± 1780 ng/mL.

Q: What about the Cmax ([1]; 200 mg, First q6h dose (day 3), 7-day MAD 200 mg q6h × 7, 1-h IV infusion, n = 5, arithmetic mean ± SD) of the same molecule?
A: The Cmax was 13500 ± 4430 ng/mL.

Q: And the clearance [1, 6]?
A: Its clearance is 76.3 mL/min.

Q: What about the Vd [1, 6] of the same molecule?
A: Its Vd is 15.7 ± 5.81 L.

Q: What about the half-life ([1]; 200 mg, First q6h dose (day 3), 7-day MAD 200 mg q6h × 7, n = 5, arithmetic mean ± SD) of the same molecule?
A: The half-life was 2.49 ± 0.51 h.

Q: What about the AUC(0-t) ([1]; 200 mg, First q6h dose (day 3), 7-day MAD 200 mg q6h × 7, n = 5, arithmetic mean ± SD, read-out: AUC0-6h) of the same molecule?
A: Its AUC(0-t) is 36800 ± 10100 ng·h/mL.

Q: And the Tmax ([1]; 200 mg, First q6h dose (day 3), 7-day MAD 200 mg q6h × 7, n = 5, median (range))?
A: The Tmax was 1.08 h.

Q: And the clearance [1, 7]?
A: The clearance was 57.8 mL/min.

Q: What about the half-life [1, 7] of the same molecule?
A: Its half-life is 7.58 ± 0.93 h.

Q: And the AUC(0-t) ([1]; 200 mg, Last q6h dose (day 9), 7-day MAD 200 mg q6h × 7, n = 5, arithmetic mean ± SD, read-out: AUC0–6h)?
A: Its AUC(0-t) is 61300 ± 15700 ng·h/mL.

Q: And the Vd [1, 7]?
A: Its Vd is 37.3 ± 8.4 L.

Q: What about the Tmax ([1]; 200 mg, Last q6h dose (day 9), 7-day MAD 200 mg q6h × 7, n = 5, median (range)) of the same molecule?
A: The Tmax was 1.1 h.

Q: And the Cmax ([1]; 200 mg, Last q6h dose (day 9), 7-day MAD 200 mg q6h × 7, plasma, n = 5, arithmetic mean ± SD)?
A: Its Cmax is 18300 ± 4150 ng/mL.

Q: What about the “Participants with creatinine elevation (>1.5× increase from baseline, RIFLE risk class)” value ([2]; 150 mg q6h × 14 days) of the same molecule?
A: Its value is 1 of 20.

Q: What about the “Serum creatinine level after completion of therapy” value ([2]; 200 mg q6h × 7 days, first participant, day 11) of the same molecule?
A: The value was 1.17 mg/dL.

Q: What about the “Peak serum creatinine level” value ([2]; 200 mg q6h × 7 days, one participant, day 10) of the same molecule?
A: The value was 1.54 mg/dL.

Q: What about the “Serum creatinine level after completion of therapy” value ([2]; 200 mg q6h × 7 days, other participant, day 11) of the same molecule?
A: The value was 1.10 mg/dL.

Q: What about the “Participants with creatinine elevation (>1.5× increase from baseline, RIFLE risk class)” value ([2]; 200 mg q6h × 7 days, reversible) of the same molecule?
A: Its value is “Two of six and 2 of 6”.

Q: And the “Peak serum creatinine level” value ([2]; 200 mg q6h × 7 days, the other participant, day 9)?
A: The value was 1.64 mg/dL.

Q: What about the Serum creatinine level ([2]; one participant, day 9) of the same molecule?
A: The Serum creatinine level was 1.74 mg/dL.

Q: And the Serum creatinine level ([2]; one participant, day 11)?
A: Its Serum creatinine level is 1.72 mg/dL.

Q: What about the Serum creatinine level ([2]; one participant, day 13) of the same molecule?
A: The Serum creatinine level was 2.07 mg/dL.

Q: And the Serum creatinine level ([2]; same participant, unscheduled visit after day 13)?
A: Its Serum creatinine level is 1.39 mg/dL.
